Values joined by “and” are separate entries in the source; they are usually repeats but may differ in a detail not shown here. Identical values can stand only once. Like-named read-outs stand apart in the source and are kept apart here. Marks after values point to notes of the source that are not given here.
How the values were obtained:
[1] = molecular target: T1, α-tubulin (Bos taurus, UniProt P81947+Q6B856); assay: Subtilisin digestion of tubulin after incubation with various compounds; format: biochemical, bovine; conditions: 50 μM drug, subtilisin up to 60 min at room temperature
T1 construct: MAP-rich bovine brain tubulin (99% purity), Hela cell tubulin (90% purity); purchased Cytoskeleton (Denver, Colo.); host or cells: bovine brain
Procedure: Tubulin (5 μg) was incubated with 50 μM drug at room temperature for 25 minutes and then digested under native conditions with subtilisin (0.05 μg) for 0, 5, 10, 15, 30 and 60 min at room temperature. Enzymatic digestion was stopped with 1 mM PMSF and samples were resolved by SDS-PAGE under conditions that allowed separation of α- and β-tubulin subunits. Gels were then fixed and stained with Coomassie blue.

[2] = molecular target: T2, bovine brain tubulin (Bos taurus, UniProt P81947+Q6B856); assay: Competition of [3H]-Probe 1 photolabeling of tubulin; format: binding; conditions: for Probe 1 photolabeling of tubulin (% of no-competitor control): control (no competitor) = 100; for IC50: read-out: IC50 for inhibition of Probe 1 photolabeling of tubulin
T2 construct: MAP-rich bovine brain tubulin (99% purity), Hela cell tubulin (90% purity); purchased Cytoskeleton (Denver, Colo.); host or cells: bovine brain
Procedure: (§1) Alternatively, a cytosolic preparation of KB-3-1 cell lysates (50 μg) or KB-3-1 cells (40,000 cells) were used in the place of purified tubulin above. The supernatant of mechanically disrupted cells centrifuged at 100,000×g was used as a cytosolic preparation. K-3-1 cells were prepared by growing KB-3-1 cells in a 96-well plate and rinsing them with serum free medium.
If whole cells were used, Laemmli sample buffer was then added to lyse the cells.
Low grade SDS (Sigma, catalog No. L5750) was used in the running buffer, when needed, to allow separation of α and β-tubulin subunits. Gels were fixed, stained with Coomassie blue from BioRad (Hercules, Calif.) to ensure equal loading of protein, and sliced. […] Alternatively, gels were incubated with EN^3HANCE according to the manufacturer's instructions (Life Sciences Products, Inc.), washed, and dried prior to exposure of the gel to Biomax MX film from Kodak (Rochester, N.Y.) for fluorography.
After incubation for 30 minutes at 37° C., samples were irradiated with 360 nm UV light for 30 minutes and separated by SDS-PAGE. Gels were exposed to film using fluorographic techniques.
In particular, photolabeling experiments were performed as described in section 7.1.5 above, at both room temperature and at 37° C.

[3] = molecular target: T3, tubulin (Bos taurus, UniProt P81947+Q6B856); assay: Separation of polymerized and free tubulin by centrifugation; format: biochemical, bovine; conditions: 50 μM drug, centrifugation at 10,000 g and 100,000 g
T3 construct: MAP-rich bovine brain tubulin (99% purity), Hela cell tubulin (90% purity); purchased Cytoskeleton (Denver, Colo.); host or cells: bovine brain
Procedure: Tubulin (5 μg) was incubated with 50 μM drug at room temperature for 25 minutes and then centrifuged at either 10,000 g for 15 minutes in a tabletop microfuge or at 100,000 g for 15 minutes in an airfuge. The supernatant was carefully removed to a fresh tube to obtain free tubulin and the pellet was solubilized in SDS-PAGE sample buffer.

[4] = molecular target: T3, tubulin; assay: Competition of [3H]-Probe 2 photolabeling of tubulin; format: binding, bovine
Procedure: as §1
Competition binding experiments were performed as described in Section 7.1.5. […] Samples were then irradiated for 2 hours at 4° C. and evaluated by SDS-PAGE and fluorography.

[5] = molecular target: microtubule associated protein (MAP)-rich bovine brain tubulin (bovine) (UniProt P81947); assay: reversible binding to bovine brain tubulin (range given in Table 1)
[6] = molecular target: microtubule associated protein (MAP)-rich bovine brain tubulin (bovine) (UniProt P81947)
[7] = molecular target: α-tubulin of bovine brain tubulin (bovine) (UniProt P81947); assay: 1 mM HTI-286 against 2.5 µM [3H]-Probe 1 photolabeling, fluorography
[8] = molecular target: microtubule associated protein (MAP)-rich bovine brain tubulin (bovine) (UniProt P81947); assay: 100 µM HTI-286 against 0.25 µM [3H]-Probe 1 photolabeling of tubulin, 37° C.
[9] = molecular target: microtubule associated protein (MAP)-rich bovine brain tubulin (bovine) (UniProt P81947); assay: 100 µM HTI-286 against 0.25 µM [3H]-Probe 2 photolabeling of tubulin, room temperature
[10] = molecular target: microtubule associated protein (MAP)-rich bovine brain tubulin (bovine) (UniProt P81947); assay: 100 µM HTI-286 against 0.25 µM [3H]-Probe 1 photolabeling of tubulin, room temperature
[11] = molecular target: T2, bovine brain tubulin; assay: Reversible binding affinity assay (tubulin fluorescence)
Procedure: The affinity of both HTI-286 and of non-radiolabled Probe 1 and Probe 2, to bovine brain tubulin was determined by previously published methods (Krishnamurthy et al., Biochem., submitted). Briefly, 5 mg/mL […] tubulin prepared in PEM buffer was pre-incubated with buffer or varying concentrations of test agents in individual quartz cuvettes. The intrinsic tryptophan fluorescence of tubulin (excitation at 560 nm and maximal emission at 580 nm) was measured after pre-incubation for 90 minutes. The change in fluorescence intensity at 580 nm in the presence of compound was fitted to a quadratic equation to obtain apparent dissociation constants (KD) of the test agents.

[12] = tested on: KB cells; assay: Cell proliferation assay in tissue culture (SRB); format: cell-based
Procedure: Cell proliferation studies were performed according to procedures described by Loganzo et al. (Cancer Res. 2003, 63:1838-1845). Briefly, KB cells were plated in 96-well plates in 100 μL media at densities pre-determined to produce 60-90% confluence at the time of analysis. Compounds, which were serially diluted into media as 2× stocks, were added to cells in duplicate. After 72 hours of incubation, cell survival was assayed by the SRB assay as described (Rabindran et al., C. Cancer Res. 1998, 58:5850-5858). IC50 values (i.e. the concentration of drug needed to inhibit cell growth by 50%) were used to evaluate drug potency.

[13] = molecular target: T4, bovine MAP-rich tubulin (Bos taurus, UniProt P81947+Q6B856); assay: Tubulin polymerization assay in a cell-free system; format: biochemical; conditions: 0.3 μM compound
T4 construct: MAP-rich bovine brain tubulin (99% purity), Hela cell tubulin (90% purity); purchased Cytoskeleton (Denver, Colo.); host or cells: bovine brain
Procedure: In vitro tubulin polymerization assays were performed according to procedures that have been described elsewhere (Loganzo et al., Cancer Res. 2003, 63:1838-1845). Briefly, bovine MAP-rich tubulin (final concentration 1.5 mg/mL) was dissolved in cold PEM buffer containing 1 mM GTP (GPEM) and centrifuged at 12,000×g for 10 minutes at 4° C. The tubulin solution (100 μL/well) was added rapidly to wells of a low-volume, 96-well plate already containing duplicate aliquots (10 μL) of test compounds in GPEM. Final compound concentrations were 0.3 μM. Control wells contained the same final concentration of DMSO (0.3%). After initiation of the reaction, absorbance at 340 nm was measured every minute for 60 minutes at 24° C. using a SpectraMax Plus plate reader (Molecular Devices, Sunnyvale, Calif.). An increase in absorbance over time indicated an increase in turbidity resulting from tubulin polymerization.

[14] = molecular target: microtubule associated protein (MAP)-rich bovine brain tubulin (bovine) (UniProt P81947); assay: change of fluorescence of rhodamine-labeled tubulin
[15] = molecular target: microtubule associated protein (MAP)-rich bovine brain tubulin (bovine) (UniProt P81947); assay: 100 µM non-radioactive Probe 2 against 0.25 µM [3H]-Probe 2 photolabeling of tubulin, room temperature
[16] = molecular target: microtubule associated protein (MAP)-rich bovine brain tubulin (bovine) (UniProt P81947); assay: 100 µM non-radiolabeled Probe 1 against [3H]-Probe 1, tubulin: radiolabeled probe 2.5:0.25
[17] = molecular target: microtubule associated protein (MAP)-rich bovine brain tubulin (bovine) (UniProt P81947); assay: 100 µM non-radiolabeled Probe 1 against [3H]-Probe 1, tubulin: radiolabeled probe 2.5:2.5
[18] = molecular target: microtubule associated protein (MAP)-rich bovine brain tubulin (bovine) (UniProt P81947); assay: 100 µM non-radiolabeled Probe 1 against 0.25 µM [3H]-Probe 1 photolabeling of tubulin, room temperature
[19] = molecular target: microtubule associated protein (MAP)-rich bovine brain tubulin (bovine) (UniProt P81947); assay: 100 µM non-radiolabeled Probe 1 against 0.25 µM [3H]-Probe 1 photolabeling of tubulin, 37° C.
[20] = Room Temp., 2.5 μM tubulin, 0.25 μM radiolabeled Probe 1, 100 μM competitor
[21] = room temperature, 400-fold molar excess (100 μM) competitor, 2.5 μM tubulin, 0.25 μM radiolabeled Probe 1
[22] = 100 μM competitor, 2.5 μM tubulin, 0.25 μM [3H]-Probe 2, room temperature
[23] = room temperature, 2.5 μM tubulin, 0.25 μM radiolabeled Probe 1

| Probe 1 photolabeling of tubulin (% of no-competitor control) ([2]; 37° C., 100 μM competitor) | Probe 1 photolabeling of tubulin (% of no-competitor control) [2, 20] | reduction of Probe 1 photolabeling of tubulin [2, 21] | Kd [5] | tubulin polymerization (% inhibition) [6] | Molecule | protection of α-tubulin from subtilisin cleavage [1] | protein recovered in pellet fractions (tubulin aggregation) [3] | inhibition of Probe 2 labeling of tubulin [4, 22] | further results |
| --- | --- | --- | --- | --- | --- | --- | --- | --- | --- |
| 173 ± 7% | 83 ± 41% | almost no effect | – | – | CC(=O)O[C@H]1C(=O)[C@@]2(C)[C@H]([C@H](OC(=O)c3ccccc3)[C@]3(O)C[C@H](OC(=O)[C@H](O)[C@@H](NC(=O)c4ccccc4)c4ccccc4)C(C)=C1C3(C)C)[C@]1(OC(C)=O)CO[C@@H]1C[C@@H]2O [Paclitaxel] | unable to cleave α-tubulin even after 60 minutes | significant amount of protein was recovered | – | enhancement of Probe 1 photolabeling of tubulin ([2]; 37° C.): 73%; Probe 2 photolabeling, % of the control value [4, 22]: 113%; enhancement of Probe 2 photolabeling ([4]; higher concentrations of competitor): this effect was lost |
| – | – | – | 400 nM and 800 nM | 87.5% | HTI-286 (N,β,β-trimethyl-L-phenylalanyl-N1-[(1S,2E)-3-carboxy-1-isopropylbut-2-enyl]-N1,3-dimethyl-L-valinamide trifluoroacetate) (peptide) | – | – | – | percent inhibition of Probe 1 incorporation [7]: > 50%; Inhibition (%) (labeling against control = 100) [8]: 47%; percent inhibition of Probe 2 labeling (so in the source) [9]: 45%; Inhibition (%) (labeling against control = 100) [10]: 27% |
| – | – | – | – | – | Nc1nc2c(ncn2[C@@H]2O[C@H](COP(=O)(O)OP(=O)(O)OP(=O)(O)O)[C@@H](O)[C@H]2O)c(=O)[nH]1 [GTP, guanosine-5′-triphosphate] | – | – | – | effect on incorporation of Probe 1 into tubulin ([2]; pre-incubation with between 0 and 100 μM): did not significantly inhibit incorporation |
| – | – | – | – | – | CN[C@H](C(=O)N[C@H](C(=O)N(C)[C@H](/C=C(\C)C(=O)O)C(C)C)C(C)(C)c1ccc(C(=O)c2ccccc2)cc1)C(C)(C)c1ccccc1 [Probe 2, N,β,β-trimethyl-L-phenylalanyl-4-benzoyl-N-[(1S,2E)-3-carboxy-1-isopropyl-2-butenyl]-N,β,β-trimethyl-L-phenylalaninamide] | – | – | 12% | Kd ([11]; Table 1, binding to bovine brain tubulin, read-out: KD): 1100 to 6000 nM; KD relative to KD of HTI-286 ([11]; fluorescence method): approximately 6 fold; Kd ([11]; rhodamine-labeled tubulin, 90 minutes pre-incubation, read-out: apparent binding constant (KD), fluorescence method): 3600 nM; IC50 ([12]; 72 hours): 22.4 ± 0.7 nM; IC50 ([12]; Homo sapiens, KB, 72 h): 22 nM; inhibition at 0.3 µM [13]: 69% |
| – | – | – | 1100 nM and 6000 nM | 69% | Probe 2 (N,β,β-trimethyl-L-phenylalanyl-4-benzoyl-N-[(1S,2E)-3-carboxy-1-isopropyl-2-butenyl]-N,β,β-trimethyl-L-phenylalaninamide) (peptide) | – | – | – | fold KD against HTI-286 [14]: 6 fold; percent inhibition of Probe 2 labeling (so in the source) [15]: 12% |
| – | – | – | 800 nM | 88% | Probe 1 (4-benzoyl-N,β,β-trimethyl-L-phenylalanyl-N1-[(1S,2E)-3-carboxy-1-isopropylbut-2-enyl]-N1,3-dimethyl-L-valinamide) (peptide) | – | – | – | percent inhibition of tubulin labeling [16]: 93%; percent inhibition of tubulin labeling [17]: 82%; Inhibition (%) (labeling against control = 100) [18]: 12%; Inhibition (%) (labeling against control = 100) [19]: 24% |
| 52 ± 0.5% | 28 ± 1% | approximately 72% | – | – | CC[C@]1(O)C[C@@H]2CN(CCc3c([nH]c4ccccc34)[C@@](C(=O)OC)(c3cc4c(cc3OC)N(C)[C@H]3[C@@](O)(C(=O)OC)[C@H](OC(C)=O)[C@]5(CC)C=CCN6CC[C@]43[C@@H]65)C2)C1 [Vinblastine] | unable to cleave α-tubulin even after 60 minutes | significant amount of protein was recovered | 64% | reduction of Probe 1 photolabeling of tubulin ([2]; 37° C.): about 50%; IC50 [2, 23]: 22000 nM |

| Molecule | Probe 1 photolabeling of tubulin (% of no-competitor control) ([2]; 37° C., 100 μM competitor) | Probe 1 photolabeling of tubulin (% of no-competitor control) [2, 20] | reduction of Probe 1 photolabeling of tubulin [2, 21] | Kd [5] | tubulin polymerization (% inhibition) [6] | protection of α-tubulin from subtilisin cleavage [1] | protein recovered in pellet fractions (tubulin aggregation) [3] | inhibition of Probe 2 labeling of tubulin [4, 22] | further results |
| --- | --- | --- | --- | --- | --- | --- | --- | --- | --- |
| CC[C@H](C)[C@@H]([C@@H](CC(=O)N1CCC[C@H]1[C@H](OC)[C@@H](C)C(=O)N[C@@H](Cc1ccccc1)c1nccs1)OC)N(C)C(=O)[C@@H](NC(=O)[C@H](C(C)C)N(C)C)C(C)C [Dolastatin-10] | 26^† % | 13 ± 3% | approximately 87% | – | – | unable to cleave α-tubulin even after 60 minutes | significant amount of protein was recovered | 27% | reduction of Probe 1 photolabeling of tubulin ([2]; 37° C.): about 75%; IC50 [2, 23]: 5000 nM |
